# From US10590132B2, “Selective estrogen receptor down-regulators” (AstraZeneca AB, priority 2017, dated 2020)
# Legend:
# [1] = biological target: Estrogen Receptor (ERα) in MCF-7 cells (Homo sapiens (Human), UniProt P03372); assay: MCF-7 ER down-regulation assay (immuno-fluorescence); assay type: cell-based; details: maximum downregulation in the assay
# Description: The ability of compounds to down-regulate Estrogen Receptor (ER) numbers was assessed in a cell based immuno-fluorescence assay using the MCF-7 human ductal carcinoma breast cell line. MCF-7 cells were revived directly from a cryovial (approx 5×10^6 cells) in Assay Medium (phenol red free Dulbecco's Modified Eagle's medium (DMEM); Sigma D5921) containing 2 mM L-Glutamine and 5% (v/v) Charcoal/Dextran treated foetal calf serum. Cells were syringed once using a sterile 18G×1.5 inch (1.2×40 mm) broad gauge needle and cell density was measured using a Coulter Counter (Beckman). […] Following cell seeding, plates were incubated overnight at 37° C., 5% CO2 (Liconic carousel incubator). Test data was generated using the LabCyte Echomodel 555 compound reformatter which is part of an automated workcell (Integrated Echo 2 workcell). Compound stock solutions (10 mM) of the test compounds were used to generate a 384 well compound dosing plate (Labcyte P-05525-CV1). […] 40 μL of DMSO added to wells in row P on the source plate allowed for DMSO normalisation across the dose range. […]
# The Echo uses acoustic technology to perform direct microplate-to-microplate transfers of DMSO compound solutions to assay plates. […] 20 μL of PBS was added to each well and the plates covered with a black plate seal and stored at 4° C. before being read. […]
# [2] = Human plasma protein binding (equilibrium dialysis); assay type: in vitro ADME; details: dialysis 18 hours
# Sequence of Estrogen Receptor (ERα) in MCF-7 cells (P03372 whole entry): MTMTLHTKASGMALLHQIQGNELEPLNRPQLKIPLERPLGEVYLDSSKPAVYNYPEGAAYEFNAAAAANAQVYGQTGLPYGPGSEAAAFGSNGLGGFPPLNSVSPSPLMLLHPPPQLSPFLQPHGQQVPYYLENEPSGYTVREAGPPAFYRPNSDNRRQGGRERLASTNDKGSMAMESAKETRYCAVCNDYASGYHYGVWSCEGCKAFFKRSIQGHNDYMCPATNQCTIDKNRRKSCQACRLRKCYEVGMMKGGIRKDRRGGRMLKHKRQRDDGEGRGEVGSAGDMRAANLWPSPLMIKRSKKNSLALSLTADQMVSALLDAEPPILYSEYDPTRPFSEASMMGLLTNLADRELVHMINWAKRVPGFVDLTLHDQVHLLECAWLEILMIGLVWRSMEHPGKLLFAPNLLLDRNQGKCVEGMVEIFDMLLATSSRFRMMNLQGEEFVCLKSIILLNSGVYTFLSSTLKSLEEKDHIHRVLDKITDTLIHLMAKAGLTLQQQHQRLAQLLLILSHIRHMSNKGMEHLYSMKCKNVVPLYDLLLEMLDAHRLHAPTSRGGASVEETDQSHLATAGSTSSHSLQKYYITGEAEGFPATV
SMILES,% downregulation (in brackets) [1] [%],Human plasma protein binding (% free) [2] [% free]
"COCc1ccc(OCCNCCCF)cc1[C@@H]1c2[nH]c3ccccc3c2C[C@@H](C)N1CC(F)(F)F [Example 71, 3-fluoro-N-(2-(4-(methoxymethyl)-3-((1R,3R)-3-methyl-2-(2,2,2-trifluoroethyl)-2,3,4,9-tetrahydro-1H-pyrido[3,4-b]indol-1-yl)phenoxy)ethyl)propan-1-amine]",90,0.44
"C[C@@H]1Cc2c([nH]c3ccc(F)cc23)[C@@H](c2c(F)cnc(OCCN(C)CCCF)c2F)N1CC(F)(F)CO [Example 67, 3-((1R,3R)-1-(3,5-difluoro-2-(2-((3-fluoropropyl)(methyl)amino)ethoxy)pyridin-4-yl)-6-fluoro-3-methyl-1,3,4,9-tetrahydro-2H-pyrido[3,4-b]indol-2-yl)-2,2-difluoropropan-1-ol]",,1.6
"C[C@@H]1Cc2c([nH]c3ccccc23)[C@@H](c2c(F)ccc(OCCN(C)CCCF)c2F)N1CC1(F)COC1 [Example 154, N-(2-(2,4-difluoro-3-((1R,3R)-2-((3-fluorooxetan-3-yl)methyl)-3-methyl-2,3,4,9-tetrahydro-1H-pyrido[3,4-b]indol-1-yl)phenoxy)ethyl)-3-fluoro-N-methylpropan-1-amine]",,2.7
"Cc1c(OCCNCCCF)ccc(F)c1[C@@H]1c2[nH]c3ccccc3c2CC(C)(C)N1C[C@H](C)C(=O)O [Example 134, (S)-3-((R)-1-(6-fluoro-3-(2-((3-fluoropropyl)amino)ethoxy)-2-methylphenyl)-3,3-dimethyl-1,3,4,9-tetrahydro-2H-pyrido[3,4-b]indol-2-yl)-2-methylpropanoic acid]",,36
"Cc1c(NCCNCCCF)ccnc1[C@@H]1c2[nH]c3ccccc3c2C[C@@H](C)N1CC(F)(F)F [Example 95, N1-(3-fluoropropyl)-N2-(3-methyl-2-((1S,3R)-3-methyl-2-(2,2,2-trifluoroethyl)-2,3,4,9-tetrahydro-1H-pyrido[3,4-b]indol-1-yl)pyridin-4-yl)ethane-1,2-diamine]",,4.6
"C[C@@H]1Cc2c([nH]c3ccccc23)[C@@H](c2c(F)cnc(OCCNCCCF)c2F)N1CC1(F)CC1 [Example 108, N-(2-((3,5-difluoro-4-((1R,3R)-2-((1-fluorocyclopropyl)methyl)-3-methyl-2,3,4,9-tetrahydro-1H-pyrido[3,4-b]indol-1-yl)pyridin-2-yl)oxy)ethyl)-3-fluoropropan-1-amine]",,2.3
"Cc1c([C@@H]2c3[nH]c4ccccc4c3C[C@@H](C)N2CC(F)(F)F)ccnc1OCCNCCCF [Example 106, 3-fluoro-N-(2-((3-methyl-4-((1R,3R)-3-methyl-2-(2,2,2-trifluoroethyl)-2,3,4,9-tetrahydro-1H-pyrido[3,4-b]indol-1-yl)pyridin-2-yl)oxy)ethyl)propan-1-amine]",,0.34
"C[C@@H]1Cc2c([nH]c3ccccc23)[C@@H](c2c(Cl)ccc(OCCNCCCF)c2F)N1C[C@H](C)C(=O)O [Example 54, (S)-3-((1R,3R)-1-(6-chloro-2-fluoro-3-(2-((3-fluoropropyl)amino)ethoxy)phenyl)-3-methyl-1,3,4,9-tetrahydro-2H-pyrido[3,4-b]indol-2-yl)-2-methylpropanoic acid]",,18
"COc1ccc(OCCNCCC(F)(F)F)cc1[C@@H]1c2[nH]c3ccccc3c2C[C@@H](C)N1CC(F)(F)F [Example 72, 3,3,3-trifluoro-N-(2-(4-methoxy-3-((1R,3R)-3-methyl-2-(2,2,2-trifluoroethyl)-2,3,4,9-tetrahydro-1H-pyrido[3,4-b]indol-1-yl)phenoxy)ethyl)propan-1-amine]",,<0.1
"COc1ccc(OCCNCCCF)cc1[C@@H]1c2[nH]c3ccccc3c2C[C@@H](C)N1C[C@H](C)C(=O)O [Example 53, (S)-3-((1R,3R)-1-(5-(2-((3-fluoropropyl)amino)ethoxy)-2-methoxyphenyl)-3-methyl-1,3,4,9-tetrahydro-2H-pyrido[3,4-b]indol-2-yl)-2-methylpropanoic acid]",,80
"C[C@@H]1Cc2c([nH]c3ccccc23)[C@@H](c2cccc(OCCNCCCF)c2C#N)N1CC(F)(F)F [Example 69, 2-(2-((3-fluoropropyl)amino)ethoxy)-6-((1R,3R)-3-methyl-2-(2,2,2-trifluoroethyl)-2,3,4,9-tetrahydro-1H-pyrido[3,4-b]indol-1-yl)benzonitrile]",,2.2
"CC(CN1[C@H](c2c(Cl)ccc(OCCNCCCF)c2Cl)c2[nH]c3ccc(F)cc3c2C[C@H]1C)C(=O)O (single isomer, unassigned) [Example 129]",,23
"COc1ccc(NCCNCCCF)nc1[C@@H]1c2[nH]c3ccccc3c2C[C@@H](C)N1CC(F)(F)F [Example 43, N1-(3-fluoropropyl)-N2-(5-methoxy-6-((1S,3R)-3-methyl-2-(2,2,2-trifluoroethyl)-2,3,4,9-tetrahydro-1H-pyrido[3,4-b]indol-1-yl)pyridin-2-yl)ethane-1,2-diamine]",,2.8
"C[C@@H]1Cc2c([nH]c3ccccc23)[C@@H](c2cccc(OCCNCCCF)c2Cl)N1CC(F)(F)F [Example 25, N-(2-(2-chloro-3-((1R,3R)-3-methyl-2-(2,2,2-trifluoroethyl)-2,3,4,9-tetrahydro-1H-pyrido[3,4-b]indol-1-yl)phenoxy)ethyl)-3-fluoropropan-1-amine]",,0.080
"COc1ccc(OC[C@@H](C)NCCCF)cc1[C@@H]1c2[nH]c3ccccc3c2C[C@@H](C)N1CC(F)(F)CO [Example 50, 2,2-difluoro-3-((1R,3R)-1-(5-((R)-2-((3-fluoropropyl)amino)propoxy)-2-methoxyphenyl)-3-methyl-1,3,4,9-tetrahydro-2H-pyrido[3,4-b]indol-2-yl)propan-1-ol]",,7.1
"Cc1c(N(C)CCNCCCF)ccc(F)c1[C@@H]1c2[nH]c3ccccc3c2C[C@@H](C)N1C[C@H](C)C(=O)O [Example 136, (S)-3-((1R,3R)-1-(6-fluoro-3-((2-((3-fluoropropyl)amino)ethyl)(methyl)amino)-2-methylphenyl)-3-methyl-1,3,4,9-tetrahydro-2H-pyrido[3,4-b]indol-2-yl)-2-methylpropanoic acid]",,2.1
